Assay results reported in patent US9932329B2, “Benzimidazole derivatives as RLK and ITK inhibitors” (Principia Biopharma, Inc., priority 2014, dated 2018).
Where a name gives a salt, the structure may show the parent alone. Read-outs that look alike come from different tables or passages of the source.

Assays:
[1] = tested on: NFAT-bla Jurkat cells; assay: cells; settings: Homo sapiens, read-out: TCR-induced NFAT IC50
[2] = tested on: human PBMCs; assay: cells; settings: PBMC, read-out: CD3/CD28-induced IL-2 IC50
[3] = biological target: RLK (Homo sapiens (Human), UniProt P42681); assay: Inhibition of RLK enzymatic activity, Caliper assay; format: biochemical
Sequence of RLK (P42681 whole entry): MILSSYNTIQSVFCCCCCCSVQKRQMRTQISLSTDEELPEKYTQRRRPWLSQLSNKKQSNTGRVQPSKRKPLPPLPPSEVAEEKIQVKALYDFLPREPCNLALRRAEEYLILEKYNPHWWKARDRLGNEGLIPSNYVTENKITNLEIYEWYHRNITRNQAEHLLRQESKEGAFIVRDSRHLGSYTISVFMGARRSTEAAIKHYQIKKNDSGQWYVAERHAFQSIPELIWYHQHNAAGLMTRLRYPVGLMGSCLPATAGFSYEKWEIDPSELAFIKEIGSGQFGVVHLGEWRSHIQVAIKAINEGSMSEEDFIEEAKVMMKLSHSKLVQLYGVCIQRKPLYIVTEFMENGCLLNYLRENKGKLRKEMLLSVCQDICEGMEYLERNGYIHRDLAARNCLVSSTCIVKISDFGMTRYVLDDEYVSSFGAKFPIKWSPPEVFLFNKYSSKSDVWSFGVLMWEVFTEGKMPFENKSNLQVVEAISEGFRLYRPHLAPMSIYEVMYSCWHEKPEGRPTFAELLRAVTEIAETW

[4] = tested on: cell types that do not express ITK and RLK; assay: BioMap cell screening panel, cell types that do not express ITK and RLK; format: cell-based; settings: data not shown
Text: (§1) FIG. 1 depicts the inhibition of intracellular expression of IL-17 in the presence of an ITK/RLK inhibitor (Tool Compound A) by a population of T-cells activated by anti-CD3/anti-CD-28. FIG. 2 depicts results from a BioMap® cell screening panel (performed by BioSeek, Inc., South San Francisco, Calif.) is a set of cell-based assays used to probe the cellular potency and selectivity of inhibitory compounds. A variety of cell culture and co-culture systems are stimulated with a range of molecules. Biomarker readouts are pathway activities in the culture systems. The biomarker readouts measured in each system are indicated along the x-axis. […] Three concentrations of Compound A were tested for the ability to modulate the various readouts. […] The TH2 system consists of primary human umbilical vein endothelial cells co-cultured with 14-day TH2 polarized CD4 T-cell blasts stimulated with TCR and IL-2.

[5] = tested on: human PBMC and B cell co-culture; assay: IL-17A secretion in PBMC-B cell co-cultures (BioMap BT system); format: cell-based
Text: as §1
(§2) Tool Compound A was tested in T cell co-cultures consisting of either a mixture of human primary peripheral blood mononuclear cells (PBMC) and B cells or human primary differentiated Th2 cells and human umbilical vein endothelial cells. The PBMC-B cell co-cultures were stimulated with TCR activators anti-CD3 and anti-CD28 and anti-IgM antibodies for 84 h to simulate B cell activation driven by T cell activation. Tool Compound A was tested at 10 μM, 1 μM, 100 nM and 10 nM. […]

[6] = tested on: human Th2 cell-HUVEC co-culture; assay: IL-17A secretion in primary Th2 cell-HUVEC co-cultures (BioMap TH2 system); format: cell-based; settings: stimulated by TCR activation and interleukin-2
Text: as §1, §2

[7] = tested on: human Th17 cells; assay: Intracellular IL-17 expression by purified human Th17 cells after anti-CD3/anti-CD28 activation; format: cell-based; settings: single dose of 500 nM, 1 h exposure, 12 h activation, FACS
Text: A population of T cells enhanced in Th17 cells was produced using the EasySep™ human Th17 enrichment kit from StemCell Technologies. […]

[8] = tested on: murine Th17 cells; assay: Differentiation of murine Th17 cells from CD4+ cells of TCR transgenic mice; format: cell-based, mouse; settings: for IC50: Mus musculus, 72 h
Protocol: CD4+ cells from TCR transgenic mice (B10.A 5C.C7 TCR Tg (Rag-2^−/−)) were grown for three days in the presence of culture conditions that support the differentiation of the T cell population to Th17 cells (optimized concentrations of IL-6, TGF-β, IL-1β, IL-23, anti-mouse IL-2, anti-mouse IFN-γ, and anti-mouse IL-4 mAb). This was done in the presence of varying concentrations of Tool Compound A in the cell culture medium during the differentiation procedure. The cells were then activated with a combination of phorbol 12-myristate 13-acetate and ionomycin and the expression of the Th17 specific transcription factor RORγt and intracellular IL-17A was measured by flow cytometry.

[9] = ATP at Km (100 μM), 15 min pre-incubation, 3 h reaction

| Compound | IC50 [1] [nM] | IC50 [2] [nM] | IC50 [3, 9] [nM] | also measured |
| --- | --- | --- | --- | --- |
| CC(C)(C)C=C(C#N)C(=O)N1CCC[C@@H]1Cn1c(NC(=O)c2ccc(-c3cnco3)s2)nc2cc(CO)ccc21 [Example 1, (R)-N-(1-((1-(2-cyano-4,4-dimethylpent-2-enoyl)pyrrolidin-2-yl)methyl)-5-(hydroxymethyl)-1H-benzo[d]imidazol-2-yl)-5-(oxazol-5-yl)thiophene-2-carboxamide] | 50 | 71 | 1.2 |  |
| CC(C)(C)C=C(C#N)C(=O)N1CCC[C@@H]1Cn1c(NC(=O)c2ccc(-c3cnco3)s2)nc2cc(CNCC3CC3)ccc21 [Example 2, (R)-N-(1-((1-(2-cyano-4,4-dimethylpent-2-enoyl)pyrrolidin-2-yl)methyl)-5-(((cyclopropyl-methyl)-amino)methyl)-1H-benzo[d]imidazol-2-yl)-5-(oxazol-5-yl)thiophene-2-carboxamide formate] | 536 | 81 |  |  |
| COCC(C)NCc1ccc2c(c1)nc(NC(=O)c1ccc(-c3cnco3)s1)n2C[C@H]1CCCN1C(=O)C(C#N)=CC(C)(C)C (stereo partly drawn) [Example 7, N-1-(((R)-1-(2-cyano-4,4-dimethylpent-2-enoyl)pyrrolidin-2-yl)methyl)-5-((((R)-1-methoxypropan-2-yl)amino)methyl)-1H-benzo[d]imidazol-2-yl)-5-(oxazol-5-yl)-thiophene-2-carboxamide formate] | 101 | 109 | 2.1 |  |
| C=CC(=O)N1CCC[C@@H]1Cn1c(NC(=O)c2ccc(-c3cnco3)s2)nc2cc(CNCC3CC3)ccc21 [Example 9, (R)-N-(1-((1-acryloylpyrrolidin-2-yl)methyl)-5-(((cyclopropylmethyl)amino)methyl)-1H-benzo[d]imidazol-2-yl)-5-(oxazol-5-yl)thiophene-2-carboxamide] | 4 | 4 | 0.3 |  |
| C=CC(=O)N1CCC[C@@H]1Cn1c(NC(=O)c2ccc(-c3cnco3)s2)nc2cc(CN[C@H](CO)C(C)(C)C)ccc21 [Example 10, N-(1-(((R)-1-acryloylpyrrolidin-2-yl)methyl)-5-((((S)-1-hydroxy-3,3-dimethylbutan-2-yl)-amino)methyl)-1H-benzo[d]imidazol-2-yl)-5-(oxazol-5-yl)thiophene-2-carboxamide] |  |  | 0.2 |  |
| C=CC(=O)N1CCC[C@@H]1Cn1c(NC(=O)c2ccc(-c3cnco3)s2)nc2cc(CN[C@@H](CO)C(C)(C)C)ccc21 [Example 11, N-(1-(((R)-1-acryloylpyrrolidin-2-yl)methyl)-5-((((R)-1-hydroxy-3,3-dimethylbutan-2-yl)-amino)-methyl)-1H-benzo[d]imidazol-2-yl)-5-(oxazol-5-yl)thiophene-2-carboxamide] |  |  | 0.5 |  |
| C=CC(=O)N1CCC[C@@H]1Cn1c(NC(=O)c2ccc(-c3cnco3)s2)nc2cc(CN[C@@H](C)CO)ccc21 [Example 12, N-(1-(((R)-1-acryloylpyrrolidin-2-yl)methyl)-5-((((S)-1-hydroxypropan-2-yl)amino)methyl)-1H-benzo[d]imidazol-2-yl)-5-(oxazol-5-yl)thiophene-2-carboxamide] | 5 | 4 | 0.3 |  |
| C=CC(=O)N1CCC[C@@H]1Cn1c(NC(=O)c2ccc(-c3cnco3)s2)nc2cc(CN[C@H](C)CO)ccc21 [Example 13, N-(1-(((R)-1-acryloylpyrrolidin-2-yl)methyl)-5-((((R)-1-hydroxypropan-2-yl)amino)methyl)-1H-benzo[d]imidazol-2-yl)-5-(oxazol-5-yl)thiophene-2-carboxamide] |  |  | 0.3 |  |
| C[C@H](NCc1ccc2c(c1)nc(NC(=O)c1ccc(-c3cnco3)s1)n2C[C@H]1CCCN1C(=O)C(C#N)=CC(C)(C)C)C(C)(C)C [Example 15, N-(1-(((R)-1-(2-cyano-4,4-dimethylpent-2-enoyl)pyrrolidin-2-yl)methyl)-5-((((S)-3,3-dimethyl-butan-2-yl)amino)methyl)-1H-benzo[d]imidazol-2-yl)-5-(oxazol-5-yl)thiophene-2-carboxamide] |  |  | 1.2 |  |
| C=CC(=O)N1CCC[C@@H]1Cn1c(NC(=O)c2ccc(C(F)F)s2)nc2cc(CN[C@@H](C)C(C)(C)C)ccc21 [PRN694] |  |  |  | Inhibitory activity in cell types that do not express ITK and RLK [4]: essentially no inhibitory activity |
| C[C@H](NCc1ccc2c(c1)nc(NC(=O)c1ccc(C(F)F)s1)n2C[C@H]1CCCN1C(=O)C(C#N)=CC(C)(C)C)C(C)(C)C [Tool Compound A, N-(1-(((R)-1-(2-cyano-4,4-dimethylpent-2-enoyl)pyrrolidin-2-yl)methyl)-5-((((S)-3,3-dimethylbutan-2-yl)amino)methyl)-1H-benzo[d]imidazol-2-yl)-5-(difluoromethyl)thiophene-2-carboxamide] |  |  |  | IL-17A secretion into culture supernatant ([5]; 10 μM, 1 μM, 100 nM and 10 nM, anti-CD3, anti-CD28 and anti-IgM for 84 h): inhibited in a dose dependent manner; Release of soluble proinflammatory cytokines IL17A, IL17F and TNFα by activated T cells ([5]; BioMap panel, three concentrations): inhibits release; IL-17A secretion [6]: inhibited IL-17A secretion in a dose dependent manner; TCR-induced intracellular expression of IL-17 [7]: completely blocked; IC50 [3]: 1 nM; IC50 ([8]; three days under Th17 conditions, PMA/ionomycin, flow cytometry, read-out: Midpoint of dose response - Th17: Intracellular cytokine expression (IL-17)): < 25 nM; IC50 ([8]; three days under Th17 conditions, PMA/ionomycin, flow cytometry, read-out: Midpoint of dose response - Th17: Transcription factor expression (RORγt)): ~25 nM; IC50 ([8]; three days under Th17 differentiation conditions, read-out: Midpoint of dose response - Th17: Proliferation): < 25 nM; Concentration that blocks expression of Th17 differentiation markers (RORγt and IL-17A) ([8]; cultures polarizing murine T cells into Th17): ≤ 25 nM |
